Assay results as given in patent US5849797A, “D-β-lysylmethanediamine derivatives and preparation thereof” (Zaidan Hojin Biseibutsu Kagaku Kenkyu Kai, priority 1994, dated 1998).
≈ marks a conversion by molar mass, not a printed value.

Key:
S. flexnelli 4b JS1811 = test: Antibacterial activity, MIC by serial dilution method; type: cell-based; conditions: 0.5% peptone agar, 37° C., 18 hours
Description: The minimum inhibitory concentrations (MIC.) of (R)-3,6-diamino-N-(2-aminoethyl)hexanamide of the formula (Ia) and (R)-3,6-diamino-N-(3-aminopropyl)hexanamide of the formula (Ib) against the growth of various bacteria were determined by a serial dilution method on a 0.5% peptone agar medium (incubated at 37° C. for 18 hours). The results obtained are shown in Table 1 below, in comparison with the MIC. of D-β-lysylmethanediamine (Bellenamine).

[1] = test system: Providencia rettgeri GN311; test: as above; type: cell-based; conditions: 0.5% peptone agar, 37° C., 18 hours
P. mirabilis IFM OM-9 = test: as above; type: cell-based; conditions: Proteus mirabilis, IFMOM9, 0.5% peptone agar, 37° C., 18 hours
[2] = test system: Pseudomonas aeruginosa A3; test: as above; type: cell-based; conditions: 0.5% peptone agar, 37° C., 18 hours
Bacillus anthracis = test: microbe, parasite or virus in culture; type: cell-based; conditions: 18 h
B. subtilis PC1219 = test: Antibacterial activity, MIC by serial dilution method; type: cell-based; conditions: Bacillus subtilis, 0.5% peptone agar, 37° C., 18 hours
Proteus vulgaris OX19 = test: as above; type: cell-based; conditions: 0.5% peptone agar, 37° C., 18 hours
E. coli K-12 = test: as above; type: cell-based; conditions: Escherichia coli, K12, 0.5% peptone agar, 37° C., 18 hours
S. aureus Smith = test: as above; type: cell-based; conditions: Staphylococcus aureus, 0.5% peptone agar, 37° C., 18 hours
MT-4 cells = test: Cytotoxicity to MT-4 cells; type: cell-based, human; set-up: key: -: That the cytotoxicity was not observed; conditions: absence of HIV
Description: Furthermore, cytotoxicity of the tested compound to the MT-4 cells was estimated. This was done by incubating the MT-4 cells at varying concentrations of the tested compound and in the absence of HIV but in the same manner of incubation and under the same conditions of incubation of MT-4 cells as those employed in the above-mentioned test procedures of assaying the activity of the tested compound to inhibit the infection of T-cells with HIV. That the cytotoxicity was not observed is represented by the symbol "-" in Table 2 below.

P. rettgeri GN466 = test: Antibacterial activity, MIC by serial dilution method; type: cell-based; conditions: Providencia rettgeri, 0.5% peptone agar, 37° C., 18 hours
[3] = test system: Staphylococcus aureus FDA209P; test: as above; type: cell-based; conditions: 0.5% peptone agar, 37° C., 18 hours
[4] = test system: Klebsiella pneumoniae PCI602; test: as above; type: cell-based; conditions: 0.5% peptone agar, 37° C., 18 hours
B. cereus ATCC10702 = test: as above; type: cell-based; conditions: Bacillus cereus, 0.5% peptone agar, 37° C., 18 hours
B. subtilis NRRL B-558 = test: as above; type: cell-based; conditions: Bacillus subtilis, NRRLB558, 0.5% peptone agar, 37° C., 18 hours
[5] = test system: Shigella dysenteriae JS11910; test: as above; type: cell-based; conditions: JS11910, 18 h
Escherichia coli NIHJ = test: as above; type: cell-based; conditions: 0.5% peptone agar, 37° C., 18 hours
[6] = test system: mouse leukemia P388 cells; test: Antitumor activity, growth inhibition of mouse leukemia P388 cells; type: cell-based
Description: In this way, such concentration of the tested compound which can inhibit the growth of the P388 cells by 50%, that is, the IC50 -value of the tested compound against the P388 cells was estimated. For comparison purpose, Bellenamine was tested in the same manner as above.

HIV (HTLV-IIIB strain) = test: microbe, parasite or virus in culture; type: cell-based; conditions: Human immunodeficiency virus 1, IIIB, MT4, 96 h, MT-4 cells, 4 days, 90 at 0 μg/ml, read-out: Rate (%) of presence of HIV antigen-positive cells; for activity at 0.1 µg/mL: 0.1 μg/ml; for activity at 1 µg/mL: 1 μg/ml; for activity at 10 µg/mL: 10 μg/ml
Serratia marcescens = test: Antibacterial activity, MIC by serial dilution method; type: cell-based; conditions: 0.5% peptone agar, 37° C., 18 hours
Micrococcus luteus FDA16 = test: as above; type: cell-based; conditions: 0.5% peptone agar, 37° C., 18 hours
Solubility = type: physicochemical; conditions: in water
mice = test: Acute toxicity by intravenous injection to mice; type: in vivo; conditions: 250 mg/kg

## NCCC[C@@H](N)CC(=O)NCN [Bellenamine, D-β-lysylmethanediamine]
S. flexnelli 4b JS1811
  MIC: > 200 µg/mL
[1]
  MIC: 50 µg/mL (≈ 287 µM)
P. mirabilis IFM OM-9
  MIC: 200 µg/mL (≈ 1150 µM)
[2]
  MIC: 200 µg/mL (≈ 1150 µM)
Bacillus anthracis
  MIC: 100 µg/mL (≈ 574 µM)
B. subtilis PC1219
  MIC: 12.5 µg/mL (≈ 71.7 µM)
Proteus vulgaris OX19
  MIC: > 200 µg/mL
E. coli K-12
  MIC: > 200 µg/mL
S. aureus Smith
  MIC: 6.25 µg/mL (≈ 35.9 µM)
MT-4 cells; 0.1 μg/ml
  Cytotoxicity (given in brackets): -
MT-4 cells; 1 μg/ml
  Cytotoxicity (given in brackets): -
MT-4 cells; 10 μg/ml
  Cytotoxicity (given in brackets): -
P. rettgeri GN466
  MIC: 100 µg/mL (≈ 574 µM)
[3]
  MIC: 50 µg/mL (≈ 287 µM)
[4]
  MIC: > 200 µg/mL
B. cereus ATCC10702
  MIC: 50 µg/mL (≈ 287 µM)
B. subtilis NRRL B-558
  MIC: 12.5 µg/mL (≈ 71.7 µM)
[5]
  MIC: > 200 µg/mL
Escherichia coli NIHJ
  MIC: 200 µg/mL (≈ 1150 µM)
[6]
  IC50: 0.36 µg/mL (≈ 2.07 µM)
HIV (HTLV-IIIB strain)
  activity at 0.1 µg/mL: 50%
  activity at 1 µg/mL: 5%
  activity at 10 µg/mL: 10%
Serratia marcescens
  MIC: 200 µg/mL (≈ 1150 µM)
Micrococcus luteus FDA16
  MIC: > 200 µg/mL

## NCCC[C@@H](N)CC(=O)NCCN [Compound (Ia), (R)-3,6-diamino-N-(2-aminoethyl)hexanamide]
S. flexnelli 4b JS1811
  MIC: 100 µg/mL (≈ 531 µM)
[1]
  MIC: 25 µg/mL (≈ 133 µM)
P. mirabilis IFM OM-9
  MIC: 25 µg/mL (≈ 133 µM)
[2]
  MIC: 100 µg/mL (≈ 531 µM)
Bacillus anthracis
  MIC: 100 µg/mL (≈ 531 µM)
B. subtilis PC1219
  MIC: 25 µg/mL (≈ 133 µM)
Solubility
  Solubility: highly soluble in water
Proteus vulgaris OX19
  MIC: 200 µg/mL (≈ 1060 µM)
E. coli K-12
  MIC: 200 µg/mL (≈ 1060 µM)
S. aureus Smith
  MIC: 6.25 µg/mL (≈ 33.2 µM)
MT-4 cells; 0.1 μg/ml
  Cytotoxicity (given in brackets): -
MT-4 cells; 1 μg/ml
  Cytotoxicity (given in brackets): -
MT-4 cells; 10 μg/ml
  Cytotoxicity (given in brackets): -
P. rettgeri GN466
  MIC: 50 µg/mL (≈ 266 µM)
[3]
  MIC: 25 µg/mL (≈ 133 µM)
mice
  Acute toxicity (death of mice): did not cause death of mice
[4]
  MIC: 200 µg/mL (≈ 1060 µM)
B. cereus ATCC10702
  MIC: 50 µg/mL (≈ 266 µM)
B. subtilis NRRL B-558
  MIC: 25 µg/mL (≈ 133 µM)
[5]
  MIC: 200 µg/mL (≈ 1060 µM)
Escherichia coli NIHJ
  MIC: 100 µg/mL (≈ 531 µM)
[6]
  IC50: 0.012 µg/mL (≈ 0.0637 µM)
HIV (HTLV-IIIB strain)
  activity at 0.1 µg/mL: 90%
  activity at 1 µg/mL: 80%
  activity at 10 µg/mL: 30%
Serratia marcescens
  MIC: 100 µg/mL (≈ 531 µM)
Micrococcus luteus FDA16
  MIC: > 200 µg/mL

## NCCCNC(=O)C[C@H](N)CCCN [Compound (Ib), (R)-3,6-diamino-N-(3-aminopropyl)hexanamide]
S. flexnelli 4b JS1811
  MIC: 200 µg/mL (≈ 989 µM)
[1]
  MIC: 100 µg/mL (≈ 494 µM)
P. mirabilis IFM OM-9
  MIC: 50 µg/mL (≈ 247 µM)
[2]
  MIC: 200 µg/mL (≈ 989 µM)
Bacillus anthracis
  MIC: 200 µg/mL (≈ 989 µM)
B. subtilis PC1219
  MIC: 100 µg/mL (≈ 494 µM)
Solubility
  Solubility: highly soluble in water
Proteus vulgaris OX19
  MIC: 200 µg/mL (≈ 989 µM)
E. coli K-12
  MIC: 200 µg/mL (≈ 989 µM)
S. aureus Smith
  MIC: 50 µg/mL (≈ 247 µM)
MT-4 cells; 0.1 μg/ml
  Cytotoxicity (given in brackets): -
MT-4 cells; 1 μg/ml
  Cytotoxicity (given in brackets): -
MT-4 cells; 10 μg/ml
  Cytotoxicity (given in brackets): -
P. rettgeri GN466
  MIC: 50 µg/mL (≈ 247 µM)
[3]
  MIC: 200 µg/mL (≈ 989 µM)
mice
  Acute toxicity (death of mice): did not cause death of mice
[4]
  MIC: > 200 µg/mL
B. cereus ATCC10702
  MIC: 200 µg/mL (≈ 989 µM)
B. subtilis NRRL B-558
  MIC: 100 µg/mL (≈ 494 µM)
[5]
  MIC: 200 µg/mL (≈ 989 µM)
Escherichia coli NIHJ
  MIC: 200 µg/mL (≈ 989 µM)
[6]
  IC50: 0.028 µg/mL (≈ 0.138 µM)
HIV (HTLV-IIIB strain)
  activity at 0.1 µg/mL: 80%
  activity at 1 µg/mL: 10%
  activity at 10 µg/mL: 5%
Serratia marcescens
  MIC: 200 µg/mL (≈ 989 µM)
Micrococcus luteus FDA16
  MIC: > 200 µg/mL
